Measured values from patent US20030144219A1, “Formulations and methods for treatment or amelioration of inflammatory conditions” (priority 2001, published 2003).

Columns and labels:
[1] = Human ingestion of DHA in studies in support of the invention; format: in vivo; conditions: approximately 800 mg DHA daily
Description: The average dietary intake of DHA (10-60 mg/day) in the American diet is relatively low in comparison to intake in countries where fish or fish products comprise higher percentages of the diet. […] Generally, ranges of about 10-10,000 mg, or more specifically, about 50-2000 mg, or 100-1000 mg will-be preferred. […] Appropriate dosages of other polyunsaturated fatty acids can be estimated with reference to this study, based on known safe ingestion levels, or may be determined empirically, with the guidance provided herein.

[2] = 3.6 gm DHA per day ingested by humans; cited from earlier work

With `CC/C=C\C/C=C\C/C=C\C/C=C\C/C=C\C/C=C\CCC(=O)O` [DHA, all-cis 4,7,10,13,16,19-docosahexaenoic acid] as the molecule, how does the adverse effects [1] read?
Its adverse effects is “no apparent adverse effects”.

What about the toxicities [2] of the same molecule?
The toxicities was “no apparent toxicities”.
